Results reported in US20180200279A1, “INHIBITION OF HSV-1-ASSOCIATED CORNEAL NEOVASCULARIZATION USING INHIBITORS OF CYCLIN-DEPENDENT KINASE 9” (XAVIER UNIVERSITY OF LOUISIANA, priority 2014, published 2018).

Tests used:
[1] = system: HSV-1 17syn+ induced corneal neovascularization; assay: HSV-1 corneal neovascularization mouse model, slit-lamp examination score; type: in vivo, Balb/c mice; settings: day 25 post infection; drops 4 times daily for 14 days; 1% TFT, 0.01% flavopiridol, 0.1% DRB; n=10
Protocol: Corneal neovascularization was determined in a masked fashion by slit lamp analysis on days 2, 4, 7, 9, 11, 14, 18, and 25 post-infection (PI) with 5×10^5 PFU/eye of HSV-1 17syn+ using the formula A=(C×0.4×L×n)/2 where C=clock hours of neovascularization; 30° arc is 1 (360° circle with a total of 12); L is the length of the longest neovessel, and A is the area of neovascularization.
All experimental procedures were performed in accordance with the ARVO Resolution for the Use of Animals in Ophthalmic and Vision Research and were approved by the Xavier University Animal Care and Use Committee. Female 20 g Balb/c mice were obtained from Charles River Laboratories. Mice were allowed to equilibrate to their surroundings for 2 weeks and then were anesthetized by intramuscular administration of xylazine (6.6 mg/kg of body weight) and ketamine (100 mg/kg of body weight). The corneas were mildly scarified in a 2×2 cross-hatch pattern and each cornea was inoculated with 5×10^5 PFU of strain HSV 17syn+. […] Average neovascularization/eye was scored using the formula A=(C×0.4×L×π)/2 where C=clock hours of neovascularization; 30° arc is 1 (360° circle with a total of 12); L is the length of the longest neovessel, and A is the area of neovascularization. Students scored (by eye) the animals on the days indicated in a masked fashion using the slit-lamp, and images representative of each group were taken. Clinical scores based on epiphora, inflammation and discharge were calculated where 0=no manifestations, +1=slight manifestations, +2=moderate manifestations, and +3=severe manifestations. […] Ex ovo chick embryo chorioallantoic membrane collagen angiogenesis assays were performed using methods as previously described (Deryugina E I and Quigley J P. Chapter 2. Chick embryo chorioallantoic membrane models to quantify angiogenesis induced by inflammatory and tumor cells or purified effector molecules. Methods Enzymol. 444:21-41. 2008). […]
This was assessed with the dose and frequency that was used in the chemotherapeutic study of HSV-1 corneal neovascularization. […]

[2] = system: HSV-1 17syn+ ocular infection; assay: HSV-1 ocular infection mouse model, H&E histology of eyes (leukocytic infiltration, peripheral neovascularization); type: in vivo, Balb/c mice; settings: day 25 PI; for mouse eyes exhibiting corneal neovascularization / mouse eyes exhibiting leukocytic infiltration: H&E sections; for histological score (scale 0-1) for leukocytic infiltrate and peripheral neovascularization: H&E stained corneal sections
Protocol: Histological score (0-1) was calculated based on leukocytic infiltration and peripheral neovascularization of hematoxylin & eosin (H&E) stained slides of mouse eyes on day 25 PI.
(§1) All experimental procedures were performed in accordance with the ARVO Resolution for the Use of Animals in Ophthalmic and Vision Research and were approved by the Xavier University Animal Care and Use Committee. Female 20 g Balb/c mice were obtained from Charles River Laboratories. Mice were allowed to equilibrate to their surroundings for 2 weeks and then were anesthetized by intramuscular administration of xylazine (6.6 mg/kg of body weight) and ketamine (100 mg/kg of body weight). The corneas were mildly scarified in a 2×2 cross-hatch pattern and each cornea was inoculated with 5×10^5 PFU of strain HSV 17syn+. […] DNA was collected by swabbing the eyes with filter paper, and the eyes were examined with a slit-lamp on PI days 2, 4, 7, 9, 11, 14, 18 and 25. Average neovascularization/eye was scored using the formula A=(C×0.4×L×π)/2 where C=clock hours of neovascularization; 30° arc is 1 (360° circle with a total of 12); L is the length of the longest neovessel, and A is the area of neovascularization. Students scored (by eye) the animals on the days indicated in a masked fashion using the slit-lamp, and images representative of each group were taken. Clinical scores based on epiphora, inflammation and discharge were calculated where 0=no manifestations, +1=slight manifestations, +2=moderate manifestations, and +3=severe manifestations. Mice were sacrificed with CO2 on day 25 post-infection, and eyes were harvested, sectioned, stained with hematoxylin and eosin (H&E) for histological analysis based on peripheral neovascularization and leukocytic infiltration where 0=clear eyes, 0.5=either peripheral neovascularization or leukocytic infiltration, and 1=both peripheral neovascularization and leukocytic infiltration. Ex ovo chick embryo chorioallantoic membrane collagen angiogenesis assays were performed using methods as previously described (Deryugina E I and Quigley J P. Chapter 2. Chick embryo chorioallantoic membrane models to quantify angiogenesis induced by inflammatory and tumor cells or purified effector molecules. Methods Enzymol. 444:21-41. 2008). Briefly, fertilized embryos (Charles River Laboratories, Charleston, S.C.) were incubated at 37.5° C. for 3 days, removed from their shell using a Dremel tool and placed into a covered weighing boat for 7 further days of incubation. […] Four collagen onplants were added per egg on at least 3 separate eggs. After three additional days of incubation, images were taken of each plug using a mini-Vid camera (LW Scientific; Lawrenceville, Ga.) and quantified in a masked fashion based on the percentage of grids that were positive for newly formed blood vessels.
To confirm the results in FIGS. 1A and 1B, sections of one cornea from each mouse was sectioned, stained with H&E and analyzed for leukocytic infiltrate and peripheral neovascularization of the cornea.

[3] = system: HSV-1 17syn+ ocular infection; assay: HSV-1 ocular infection mouse model, combined clinical score (epiphora, inflammation, discharge); type: in vivo, Balb/c mice; settings: 1% TFT, 0.01% flavopiridol, 0.1% DRB drops
Protocol: The combined clinical score was determined based on epiphora (excess tearing), inflammation and discharge. […], +1=slight manifestations, +2=moderate manifestations, and +3=severe manifestations.
as §1
FIG. 1B is the combined clinical score for the treatment groups based on epiphora (excess tearing), inflammation, and discharge.

HSV-1 17syn+ = assay: Real-time PCR of HSV-1 DNA on ocular swabs of infected mice; type: in vivo, Balb/c mice; settings: day 25 post infection; 1% TFT, 0.01% flavopiridol, 0.1% DRB drops; n=10
Protocol: SYBR Green semi-quantitative real-time PCR was performed on DNA samples eluted from swabs taken from mouse eyes on days 2, 4, 7, 9, 11, 14, 18 and 25 post infection with 5×10^5 PFU/eye HSV-1 17syn+ using primers specific for HSV-1 DNA polymerase.
All experimental procedures were performed in accordance with the ARVO Resolution for the Use of Animals in Ophthalmic and Vision Research and were approved by the Xavier University Animal Care and Use Committee. Female 20 g Balb/c mice were obtained from Charles River Laboratories. Mice were allowed to equilibrate to their surroundings for 2 weeks and then were anesthetized by intramuscular administration of xylazine (6.6 mg/kg of body weight) and ketamine (100 mg/kg of body weight). The corneas were mildly scarified in a 2×2 cross-hatch pattern and each cornea was inoculated with 5×10^5 PFU of strain HSV 17syn+. […] DNA was collected by swabbing the eyes with filter paper, and the eyes were examined with a slit-lamp on PI days 2, 4, 7, 9, 11, 14, 18 and 25. Average neovascularization/eye was scored using the formula A=(C×0.4×L×π)/2 where C=clock hours of neovascularization; 30° arc is 1 (360° circle with a total of 12); L is the length of the longest neovessel, and A is the area of neovascularization. Students scored (by eye) the animals on the days indicated in a masked fashion using the slit-lamp, and images representative of each group were taken. Clinical scores based on epiphora, inflammation and discharge were calculated where 0=no manifestations, +1=slight manifestations, +2=moderate manifestations, and +3=severe manifestations. […] Ex ovo chick embryo chorioallantoic membrane collagen angiogenesis assays were performed using methods as previously described (Deryugina E I and Quigley J P. Chapter 2. Chick embryo chorioallantoic membrane models to quantify angiogenesis induced by inflammatory and tumor cells or purified effector molecules. Methods Enzymol. 444:21-41. 2008). […]

[4] = Ocular safety and tolerability of the formulation, mouse eyes; type: in vivo; settings: dose and frequency of the HSV-1 corneal neovascularization study
Protocol: (§2) This was assessed with the dose and frequency that was used in the chemotherapeutic study of HSV-1 corneal neovascularization. FIG. 1A presents the results of slit-lamp examination (SLE) scores of the corneas of the four treatment groups beginning on post-inoculation day 2 and continuing to 25 days following infection.

[5] = Ocular safety and tolerability of the formulation, rabbit eyes; type: in vivo; settings: dose and frequency of the HSV-1 corneal neovascularization study
Protocol: as §2

HSV-1 = assay: In vitro viral inhibition (plaque) assay in CV-1 cells; type: cell-based
Protocol: Numbers of plaque-forming units (PFU) were determined in a standard plaque assay procedure using CV-1 cells.
The HSV-1 strain employed was 17 syn+. Before inoculation, numbers of plaque-forming units (PFU) were determined in a standard plaque assay procedure using CV-1 cells. Pooled primary human umbilical vein endothelial cells (HUVEC) were obtained from Lonza (Basel, Switzerland) and were cultured in Medium 199 (Life Technologies, Carlsbad, Calif.) supplemented with 20% heat-inactivated FBS, penicillin G (100 U/ml), streptomycin ([…]), 2 mM L-glutamine and 1:100 endothelial cell growth supplement (ECGS, BD Biosciences, Bedford, Mass.) on tissue culture plates coated with 0.2% gelatin up to passage 6. Cells were sub-passaged or harvested when they reached ˜80% confluence. For periods of serum-deprivation, HUVEC were incubated for 4 or 16 hours in serum-starvation medium (SSM) containing Medium 199 without phenol red or ECGS but containing 0.5% FBS unless otherwise indicated. In vitro viral inhibition assays with CV-1 cells were performed as previously described (Gong E Y. Methods for screening and profiling inhibitors of herpes simplex viruses. Methods Mol Biol. 1030:303-313. 2013).

Compound	slit-lamp examination (SLE) score of corneal neovascularization [1]	mouse eyes exhibiting corneal neovascularization [2]	mouse eyes exhibiting leukocytic infiltration [2]	histological score (scale 0-1) for leukocytic infiltrate and peripheral neovascularization [2]	combined clinical score (epiphora, inflammation, discharge; 0 to +3) ([3]; day 11)	combined clinical score (epiphora, inflammation, discharge; 0 to +3) ([3]; day 25)	quantitative real-time PCR score (HSV-1 DNA) on ocular swabs (HSV-1 17syn+)	safety and tolerability of the formulation in the eye [4]	safety and tolerability of the formulation in the eye [5]	concentration at which HSV-1 replication was significantly reduced (HSV-1)	IC50 (HSV-1; read-out: average IC50 of HSV-1 replication)
O=c1[nH]c(=O)n([C@H]2C[C@H](O)[C@@H](CO)O2)cc1C(F)(F)F [TFT, triflurothymidine]	0.0±0.0	0%	30%	0.278±0.088	0.002±0.41	0.00±0.00	0.0±0.0	–	–	–	–
OC[C@H]1O[C@@H](n2cnc3cc(Cl)c(Cl)cc32)[C@H](O)[C@@H]1O [DRB, 5,6-Dichlorobenzimidazole-1-β-D-ribofuranoside]	0.042±0.60	0%	10%	0.25±0.134	0.00±0.0	0.042±0.60	0.042±0.60	safe and well-tolerated	safe and well-tolerated	25 µM	86.7 µM
